The values that follow come from patent publication US20120059021A1, “COMPOSITIONS AND METHODS FOR TREATING CANCER AND METHODS FOR PREDICTING A RESPONSE TO SUCH TREATMENTS” (UNIVERSITY OF WASHINGTON, priority 2008, published 2012).

“Also recorded” adds a separate entry of the source. Where a SMILES comes first, the peptide text is derived from it. The star is where a group is joined. Cbz = O=C(OCc1ccccc1)*; CH2F = FC*

The subject of assay [1] is Wnt/β-catenin signaling. Briefly: β-catenin activated reporter (BAR) luciferase assay in A375 melanoma cells. As to conditions: for Wnt/β-catenin signaling (BAR activity): A375, in the presence of WNT3A.
From the text: By way of non-limiting example, Wnt/β-catenin signaling can be measured using the BAR reporter described in detail elsewhere herein. Briefly, the BAR (β-catenin activated reporter) is a lentiviral plasmid which provides for expression of luciferase in response to Wnt/β-catenin signaling. Output can be measured with an automated luminescence plate reader.
Detailed information on the β-catenin activated reporter (BAR) has been previously described (23). Briefly, the β-catenin activated reporter (pBAR) is a lentiviral plasmid that contains 12 TCF/LEF binding sites (5′-[sequence]-3′) each separated by distinct 5 base-pair linkers upstream of a minimal promoter and the firefly luciferase open reading frame. The reporter also contains a separate PGK promoter that constitutively drives the expression of a puromycin resistance gene for mammalian cell selection. […] PLX4720 was purchased from Symansis (Australia cat# SY-PLX4720). CHIR99021 was purchased from Axon MedChem (Gronigen, Netherlands catalog #Axon1386). Z-VAD-FMK was purchased from R&D systems (Minneapolis, Minn. cat# FMKSP01).
Low throughput BAR reporter assays. Cells were plated in 96-well plates.
In the next assay the test system is ppERK1/2. The assay is described as follows: Immunoblot for dual-phosphorylated ERK1/2 in melanoma cells. Type of assay: cell-based, human. The note with it: for dual-phosphorylated ERK1/2 (ppERK1/2): A375. The text has this: By way of non-limiting example, inhibition of ERK signaling can be measured by determining the level of dual-phosphorylated ERK1/2 (ppERK1/2) as described in detail elsewhere herein. In brief, the level of ppERK1/2 can be detected by immunoblot assay.
(In general: A western blot detects proteins with antibodies after separation by electrophoresis.)

In another assay the test system is A375 cells. Briefly: Immunoblot of apoptosis markers (cleaved caspase-3, cleaved PARP1) in A375 cells. Type of assay: cell-based, human.
For a further assay, the system named is GSK3β. Briefly: Immunoblot for activating auto-phosphorylation of GSK3β in A375 cells. Type of assay: cell-based, human.
Another assay deals with AXIN1. Briefly: Immunoblot of steady-state AXIN1 levels in melanoma cells. It counts as cell-based, human. The note with it: for levels of AXIN1 following treatment with WNT3A and PLX4720: A375, 10 μM, 8 hours, WNT3A CM and 2 μM PLX4720.
The test system of a further assay is ERK1/2 phosphorylation. Briefly: ERK1/2 phosphorylation in human epidermal melanocytes. Type of assay: cell-based. The note with it: HEMs. The text has this:
Cell Lines. The human melanoma cell lines A375, A2058 and Me1624 were obtained from Cassian Yee (Fred Hutchinson Cancer Research Institute; Seattle, Wash.). The human melanoma cell lines COLO-829, SKMEL28, SKMEL5 were purchased from ATCC (Manassas, Va.). Human Epidermal Melanocytes, adult, lightly pigmented donor, (HEMa-LP) (C0245C) were purchased from Invitrogen (Carlsbad, Calif.). Stable BAR cell lines were generated as previously described (23). BAR luciferase cell lines were also infected with a lentivirus carrying Renilla luciferase driven by a constitutive EFlalpha promoter.
Cell Culture. The human melanoma lines A375, A2058 were cultured in DMEM supplemented with 5% FBS and 1% antibiotic. The human melanoma lines SK-MEL-5 and SK-MEL-28 were grown in EMEM supplemented with 10% FBS and 1% antibiotic. The human melanoma lines COLO-829 and MEL-624 were grown in RPMI supplemented with 10% FBS and 1% antibiotic HEMa-LP cells were cultured in medium 254 supplemented with 1% HMGS and 1% antibiotic (Invitrogen Carlsbad, Calif.). Synthetic siRNAs were transfected into cultured cells at a final concentration of 20 nM using RNAiMAX (Invitrogen; Grand Island, N.Y.).

Another assay has as its system A375. The assay is described as follows: qPCR of endogenous Wnt target gene AXIN2, A375. The note with it: A375, stimulated Wnt/β-catenin signaling. Type of assay: cell-based, human. The text has this:
RNA purification and qRT-PCR analysis. RNA was purified using the RNeasy kit following the manufacturer's protocol (Qiagen; Maryland, Md.). cDNA was synthesized using RevertAid™ M-MuLV Reverse Transcriptase (Fermentas; Ontario, CAN). Light Cycler FastStart DNA Master SYBR Green1 (Roche; Mannheim, Germany) was used for real-time PCR as previously described (53). Quantitative PCR results presented in the manuscript are averages of a minimum of three biologic replicates.

In assay [2] the test system is Wnt/β-catenin signaling. The assay is described as follows: WNT3A-mediated reporter activity in primary melanocytes. Type of assay: cell-based, human. The note with it: HEMs.
The test system of a further assay is β-catenin. Briefly: Immunoblot for β-catenin phosphorylation at Ser33/Ser37/Thr41 in A375 cells. It counts as cell-based, human.
In another assay the test system is BAD and Bim (BCL2L11). The assay is described as follows: Immunoblot of BH3-only proteins BAD and Bim in A375 cells. The note with it: A375, addition of Z-VAD-FMK, 24 hours. Type of assay: cell-based, human.
Setting [3] is: XAV939 in the presence of U0126 or PLX4720.

Turning to `Cn1cnc2c(F)c(Nc3ccc(Br)cc3Cl)c(C(=O)NOCCO)cc21` [AZD6244, 6-(4-Bromo-2-chloro-phenylamino)-7-fluoro-3-methyl-3H-benzoimidazole-5-carboxylic acid (2-hydroxy-ethoxy)-amide], the “Wnt/β-catenin signaling (BAR activity)” value in the assay on Wnt/β-catenin signaling [1] was “synergistically enhanced Wnt/β-catenin activation”. Further, in the assay with ppERK1/2, the “dual-phosphorylated ERK1/2 (ppERK1/2)” value is reported as “inhibition of ppERK1/2”.

Turning to `Cc1c[nH]c(-c2cnc(NCCNc3ccc(C#N)cn3)nc2-c2ccc(Cl)cc2Cl)n1` [CHIR99021, 6-[[2-[[4-(2,4-dichlorophenyl)-5-(5-methyl-1H-imidazol-2-yl)-2-pyrimidinyl]amino]ethyl]amino]-3-pyridinecarbonitrile], the “apoptosis (cleaved caspase-3 immunoblot)” value in the assay with A375 cells (A375, 5 μM CHIR99021 and 2 μM PLX4720, 36 hours) is given as “enhanced apoptosis in combination with PLX4720”. The “activating auto-phosphorylation of GSK3B” value in the assay on GSK3β was “loss of the activating auto-phosphorylation at Tyr216”.

With `CC(C)C[C@@H](C=O)NC(=O)[C@H](CC(C)C)NC(=O)[C@H](CC(C)C)NC(=O)OCc1ccccc1` [MG132] (Cbz-Leu-Leu-Leu-aldehyde), the “levels of AXIN1 following treatment with WNT3A and PLX4720” value in the assay with AXIN1 was “increased the levels of AXIN1”.

For `N#CC(=C(/N)Sc1ccccc1N)/C(C#N)=C(\N)Sc1ccccc1N` [U0126, 1,4-diamino-2,3-dicyano-1,4-bis [2-aminophenylthio]butadiene], the values for the ERK1/2 phosphorylation entry in the assay on ERK1/2 phosphorylation and in the assay with ppERK1/2 (six established melanoma lines harboring the BRAF^V600E mutation) were “inhibits ERK1/2 phosphorylation in a dose-dependent manner” and “inhibition of ERK1/2 phosphorylation”, respectively. Besides, the “levels of the endogenous Wnt/β-catenin target gene AXIN2” value in the assay on A375 is recorded as “dose-dependent increase”. The Wnt/β-catenin signaling entry in the assay on Wnt/β-catenin signaling [2] is recorded as “inhibited Wnt/β-catenin signaling”. In addition, the “Wnt/β-catenin signaling (BAR activity)” value in the assay with Wnt/β-catenin signaling [1] was “synergistically enhanced Wnt/β-catenin activation; also recorded: dose-dependent increase in stimulated Wnt/β-catenin signaling”. Further, the “phosphorylation of β-catenin at GSK3β sites (Ser33/Ser37/Thr41)” value in the assay on β-catenin was “decreased phosphorylation of β-catenin”. For the same compound, the “dual-phosphorylated ERK1/2 (ppERK1/2)” value with ppERK1/2 is “inhibition of ppERK1/2”. Besides, the “steady-state levels of AXIN1” value in the assay with AXIN1 (absence of rWnt3A) is given as “slightly decreased”; in the assay on AXIN1 (presence of rWnt3A) it was “markedly diminished”. For the same compound, the “activating auto-phosphorylation of GSK3B” value with GSK3β was “loss of the activating auto-phosphorylation of GSK3B at Tyr117”.

As for `Oc1nc(-c2ccc(C(F)(F)F)cc2)nc2c1CSCC2` [XAV939], the “reversal of enhancement of Wnt/β-catenin signaling by MAPK inhibition” value in the assay with Wnt/β-catenin signaling [1] (setting [3]) is reported as “unable to completely reverse the enhancement of Wnt/β-catenin signaling by MAPK inhibition”. In addition, the “steady-state levels of AXIN1” value with AXIN1 (XAV939, absence and presence of rWnt3A) is recorded as “increases steady-state levels of AXIN1”. Moreover, the AXIN1 protein levels result in the assay with AXIN1 (setting [3]) was “elevate AX1N1 protein levels to above baseline levels”.

In the case of `COC(=O)C[C@H](NC(=O)[C@H](C)NC(=O)[C@@H](NC(=O)OCc1ccccc1)C(C)C)C(=O)CF` [Z-VAD-FMK] (Cbz-Val-Ala-Asp(OMe)-CH2F), the “apoptosis with WNT3A and PLX4720” value with A375 cells (A375, Z-VAD-FMK) is “able to inhibit apoptosis”. The “PARP1 cleavage induced by WNT3A and PLX4720” value in the assay with A375 cells (A375, addition of Z-VAD-FMK, 24 hours) is listed as “completely abolished”. Also, the “increase in BimL and BimS with WNT3A and PLX4720” value in the assay with BAD and Bim (BCL2L11) is on record as “not blocked”. In the assay with Wnt/β-catenin signaling [1] (A375, Z-VAD-FMK with WNT3A and 2 μM PLX4720, 24 hours), the “Wnt/β-catenin activation as measured by BAR” value is “augments Wnt/β-catenin activation”. Besides, the “loss of steady-state AXIN1 with WNT3A and PLX4720” value in the assay on AXIN1 (A375, Z-VAD-FMK, 24 hours) is recorded as “did not affect the loss of steady-state AXIN1”.

For the compound `CCN(CC)CCCC(C)Nc1ccnc2cc(Cl)ccc12` (stereo not drawn) [chloroquine], in the assay on AXIN1, the “levels of AXIN1 following treatment with WNT3A and PLX4720” value is given as “not”.
